Measured values as given in patent US5747535A, “Selective thrombin inhibitors” (priority 1995, dated 1998).

Target: T1, trypsin (Bos taurus, UniProt P00760)
T1 sequence (P00760 24-246): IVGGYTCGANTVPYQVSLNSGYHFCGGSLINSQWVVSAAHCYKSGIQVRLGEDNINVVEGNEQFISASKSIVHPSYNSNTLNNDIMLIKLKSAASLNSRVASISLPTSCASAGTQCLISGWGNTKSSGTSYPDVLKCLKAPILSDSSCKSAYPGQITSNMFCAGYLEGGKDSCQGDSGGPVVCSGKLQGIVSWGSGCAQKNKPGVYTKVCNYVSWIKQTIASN
Experiment: biochemical
Assay type: biochemical
Conditions: 20 μM substrate; read-out: Inhibitory activity for trypsin, Ki
Protocol: To identify the selectivity for thrombin over trypsin of the compound of the present invention, the inhibitory activity for trypsin of the compound of formula (I) is measured as Ki value according to the same method as the above method for determination of thrombin inhibitory activity, and then the ratio of the activity for trypsin to the activity for thrombin is calculated. In this case, the procedure for determination of inhibitory activity for trypsin is substantially identical to that for thrombin, except that N-benzoyl-Val-Gly-Arg para-nitroanilide hydrochloride is used as the substrate.
As the substrate 20μM solution of N-benzoyl-Val-Gly-Arg-p-nitroanilide hydrochloride was used, and the inhibitor was used in various concnetrations within the range of […]. In addition, trypsin was dissolved in 0.1N HCl, adjusted to the concentration of 45 μg/ml with the said tris buffered solution just before the experiment, and then used in an amount of 40μl. As in the experiment for thrombin, a total volume of the reaction solution was 1.5 ml and the remaining procedure was conducted in the same manner.

Work on CN(C(=O)[C@H](Cc1ccc(C(=N)NN)cc1)NS(=O)(=O)c1ccc2ccccc2c1)C1CCCC1 [Example 1, (S)-N-cyclopentyl-N-methyl-3-(4-amidrazonophenyl)-2-(2-naphthylsulfonylamino)propionamide] yielded a Ki of 3.19 µM.
